Source: paper PMC2912498 (Cancer research, 2010)
Where two headings read alike, the source gives them in different places.

Key:
[1] = system: GSK-3 dependent Tau phosphorylation; type: cell-based, human
[2] = system: TCF-dependent transcription; type: cell-based, human; settings: read-out: Reporter IC50; 7dF3 reporter activity
HT29 (APC mutant) = type: cell-based, human; settings: read-out: HT29 (APC mutant) GI50; 72h
[3] = system: HCT116 (oncogenic β-catenin); type: cell-based, human; settings: read-out: HCT116 (oncogenic β-catenin) GI50; 72h
SW480 (APC mutant) = type: cell-based, human; settings: read-out: SW480 (APC mutant) GI50; 72h
SNU475 (Axin mutant) = type: cell-based, human; settings: read-out: SNU475 (Axin mutant) GI50; 96h
CCD841Co (Control) = type: cell-based, human; settings: read-out: CCD841Co (Control) GI50; 96h; >> = no growth inhibition at the highest concentration tested
[4] = system: HCT116 human colon cancer cell; type: cell-based
β-catenin [5] = type: cell-based, mouse
[6] = system: U2OS GFP-β-catenin human osteosarcoma cells; type: cell-based
[7] = system: TCF-dependent transcription; type: cell-based, human
β-catenin [8] = type: cell-based, mouse; remark: listed apart in the source
recombinant GSK3 = type: biochemical
PP1 = type: biochemical
PP2A = type: biochemical
Tyrosine Phosphatase = type: biochemical
free β-catenin [9] = type: cell-based, human; settings: SW480 cells
free β-catenin [10] = type: cell-based, human
[11] = system: TCF-dependent transcription; type: cell-based, human; remark: listed apart in the source
c-myc promoter = type: cell-based, human
survivin promoter = type: cell-based, human
LEF-1 mRNA = type: cell-based, human
Xenopus laevis embryos = type: in vivo; settings: added at the 4-16 cell stage
Zebrafish embryos = type: in vivo; settings: added at the 16-cell stage

6-bromoindirubin-3′-oxime [BIO, reference compound]
GSK-3 dependent Tau phosphorylation on Thr-181 ([1]; HEK293): reduce GSK-3 dependent Tau phosphorylation on Thr-181

CCT031374
IC50 [2]: 6.1 µM | GI50 (HT29 (APC mutant)): 11.5 µM | GI50 [3]: 13.9 µM | GI50 (SW480 (APC mutant)): 13.2 µM | GI50 (SNU475 (Axin mutant)): 9.6 µM | GI50 (CCD841Co (Control)): > 44 µM | apoptosis shown by caspase 3 activity [4]: inducing apoptosis | caspase activity relative to the other compounds [4]: almost two times more caspase activity than the other compounds | BIO-induced accumulation / levels of β-catenin (β-catenin [5]): prevented BIO-induced accumulation of β-catenin | degradation of endogenous wild-type β-catenin stabilized by BIO (β-catenin [5]): increased the degradation | degradation of β-catenin stabilized by Wnt-3A and LiCl (β-catenin [5]): resistant to degradation | degradation of β-catenin stabilized with MG132 (β-catenin [5]): not degraded | nuclear and cytosolic β-catenin pools (β-catenin [5]): reduction in both nuclear and cytosolic β-catenin pools | time to reduce levels of BIO-stabilized β-catenin (β-catenin [5]): ≤ 60 min | β-catenin N-terminal phosphorylation (β-catenin [5]): did not increase β-catenin N-terminal phosphorylation | β-catenin degradation products characteristic of calpain-induced proteolysis (β-catenin [5]): failed to induce β-catenin degradation products | formation of GFP-β-catenin aggregates [6]: induced formation of GFP-β-catenin aggregates | TCF-dependent transcription induced by stabilized β-catenin (N-terminal deletion of 89 amino acids) [7]: blocked TCF-dependent transcription | time to increased β-catenin degradation (pulse chase) (β-catenin [8]): ≤ 10 min | reversal of the BIO block of Tau phosphorylation ([1]; HEK293, BIO plus 20μM CCT031374): largely failed to reduce the BIO block of Tau phosphorylation | inhibition of recombinant GSK3 (recombinant GSK3): did not inhibit | PP1 enzyme activity (PP1): no activity | PP2A enzyme activity (PP2A): no activity | Tyrosine Phosphatase enzyme activity (Tyrosine Phosphatase): no activity | free β-catenin levels (free β-catenin [9]): not altered | free β-catenin levels (free β-catenin [10]): blocked free β-catenin levels | TCF-dependent transcription (Topflash) [11]: reduced TCF-dependent transcription | activity against c-myc promoter luciferase reporter (c-myc promoter): showed activity | activity against survivin promoter luciferase reporter (survivin promoter): showed activity | endogenous LEF-1 mRNA levels (LEF-1 mRNA): showed activity against endogenous LEF-1 mRNA levels | effect on Xenopus embryo development (Xenopus laevis embryos): did not show clear responses | effect on Zebrafish embryo development (Zebrafish embryos): did not show clear responses
